The values below come from ChEMBL document CHEMBL5303765, “Data for DCP probe BAY-7081” (2023).

In assay [1] the target is High affinity cGMP-specific 3',5'-cyclic phosphodiesterase 9A (Homo sapiens, UniProt O76083). Kind of assay: 3H-cAMP and 3H-cGMP Scintillation Proximity Assay (PDE9A).
Assay [2] concerns the target Serine/threonine-protein kinase B-raf (Homo sapiens) (UniProt P15056). Kind of assay: BRAF SGC Tm panel (DSF). The following applies: for ΔTm: Compound concentration 10.0 uM.
The target of assay [3] is Casein kinase I isoform epsilon (Homo sapiens) (UniProt P49674). Kind of assay: CSNK1E SGC Tm panel (DSF). The following applies: for ΔTm: Compound concentration 10.0 uM.
Assay [4] addresses Death-associated protein kinase 1 (Homo sapiens) (UniProt P53355). Kind of assay: DAPK1 SGC Tm panel (DSF). Particulars: for ΔTm: Compound concentration 10.0 uM.
The target in assay [5] is T1, Dual specificity mitogen-activated protein kinase kinase 4 (Homo sapiens) (UniProt P45985).
T1 sequence (whole entry): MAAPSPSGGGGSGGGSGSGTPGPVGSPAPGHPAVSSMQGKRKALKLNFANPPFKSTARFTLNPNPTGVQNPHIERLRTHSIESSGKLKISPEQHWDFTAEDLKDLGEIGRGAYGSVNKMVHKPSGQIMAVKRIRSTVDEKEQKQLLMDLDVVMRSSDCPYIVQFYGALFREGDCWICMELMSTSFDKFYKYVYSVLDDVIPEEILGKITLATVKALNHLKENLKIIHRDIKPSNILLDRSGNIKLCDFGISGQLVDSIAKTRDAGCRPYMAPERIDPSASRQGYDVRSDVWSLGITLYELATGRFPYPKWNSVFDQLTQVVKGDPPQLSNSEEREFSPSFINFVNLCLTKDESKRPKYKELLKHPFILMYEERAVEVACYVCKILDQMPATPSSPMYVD
Kind of assay: MAP2K4 SGC Tm panel (DSF). The following applies: for ΔTm: Compound concentration 10.0 uM.

In assay [6] the target is MAP kinase-activated protein kinase 2 (Homo sapiens) (UniProt P49137). Kind of assay: MAPKAPK2 SGC Tm panel (DSF). Particulars: for ΔTm: Compound concentration 10.0 uM.
In assay [7] the target is Maternal embryonic leucine zipper kinase (Homo sapiens) (UniProt Q14680). Kind of assay: MELK SGC Tm panel (DSF). Particulars: for ΔTm: Compound concentration 10.0 uM.
The target in assay [8] is Ribosomal protein S6 kinase alpha-1 (Homo sapiens) (UniProt Q15418). Kind of assay: RPS6KA1 SGC Tm panel (DSF). The following applies: for ΔTm: Compound concentration 10.0 uM.
Assay [9] addresses T2, Transcription intermediary factor 1-alpha (Homo sapiens) (UniProt O15164).
T2 sequence (whole entry): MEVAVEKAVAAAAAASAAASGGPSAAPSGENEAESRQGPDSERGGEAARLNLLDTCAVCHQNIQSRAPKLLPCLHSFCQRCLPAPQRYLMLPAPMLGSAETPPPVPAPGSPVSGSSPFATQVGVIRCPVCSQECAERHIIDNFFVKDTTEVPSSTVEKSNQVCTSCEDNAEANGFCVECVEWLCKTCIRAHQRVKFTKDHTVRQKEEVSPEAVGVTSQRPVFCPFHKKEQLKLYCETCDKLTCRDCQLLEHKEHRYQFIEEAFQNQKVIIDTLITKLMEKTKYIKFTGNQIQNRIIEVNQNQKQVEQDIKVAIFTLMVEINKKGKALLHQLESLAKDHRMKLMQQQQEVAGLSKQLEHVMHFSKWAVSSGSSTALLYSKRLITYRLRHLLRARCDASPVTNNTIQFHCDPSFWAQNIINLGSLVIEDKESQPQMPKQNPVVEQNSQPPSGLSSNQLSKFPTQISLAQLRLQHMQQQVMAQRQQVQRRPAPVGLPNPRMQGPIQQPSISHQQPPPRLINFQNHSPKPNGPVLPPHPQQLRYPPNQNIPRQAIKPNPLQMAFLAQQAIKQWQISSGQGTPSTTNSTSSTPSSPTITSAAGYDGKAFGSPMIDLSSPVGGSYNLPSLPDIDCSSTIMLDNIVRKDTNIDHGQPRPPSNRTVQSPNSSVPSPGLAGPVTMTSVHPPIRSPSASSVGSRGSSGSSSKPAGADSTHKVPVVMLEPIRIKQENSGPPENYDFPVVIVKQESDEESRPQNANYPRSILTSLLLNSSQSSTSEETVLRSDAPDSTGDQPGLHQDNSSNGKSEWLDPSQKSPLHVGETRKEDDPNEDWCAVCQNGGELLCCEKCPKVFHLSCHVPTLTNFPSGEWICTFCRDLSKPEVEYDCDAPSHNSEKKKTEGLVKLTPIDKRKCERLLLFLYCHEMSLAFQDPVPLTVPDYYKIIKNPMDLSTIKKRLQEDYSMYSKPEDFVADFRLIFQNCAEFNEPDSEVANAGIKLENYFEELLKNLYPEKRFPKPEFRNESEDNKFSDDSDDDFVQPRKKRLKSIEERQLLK
Kind of assay: TIF1 SGC Tm panel (DSF). The following applies: for ΔTm: Compound concentration 10.0 uM.

In assay [10] the target is 5-hydroxytryptamine receptor 1D (Homo sapiens) (UniProt P28221). The following applies: Compound concentration 10.0 uM.
Assay [11] deals with Mu-type opioid receptor (Homo sapiens, UniProt P35372). Particulars: Compound concentration 10.0 uM.
The target in assay [12] is Delta-type opioid receptor (Homo sapiens) (UniProt P41143). The following applies: Compound concentration 10.0 uM.
The target of assay [13] is T3, Alpha-2B adrenergic receptor (Homo sapiens) (UniProt P18089).
T3 sequence (whole entry): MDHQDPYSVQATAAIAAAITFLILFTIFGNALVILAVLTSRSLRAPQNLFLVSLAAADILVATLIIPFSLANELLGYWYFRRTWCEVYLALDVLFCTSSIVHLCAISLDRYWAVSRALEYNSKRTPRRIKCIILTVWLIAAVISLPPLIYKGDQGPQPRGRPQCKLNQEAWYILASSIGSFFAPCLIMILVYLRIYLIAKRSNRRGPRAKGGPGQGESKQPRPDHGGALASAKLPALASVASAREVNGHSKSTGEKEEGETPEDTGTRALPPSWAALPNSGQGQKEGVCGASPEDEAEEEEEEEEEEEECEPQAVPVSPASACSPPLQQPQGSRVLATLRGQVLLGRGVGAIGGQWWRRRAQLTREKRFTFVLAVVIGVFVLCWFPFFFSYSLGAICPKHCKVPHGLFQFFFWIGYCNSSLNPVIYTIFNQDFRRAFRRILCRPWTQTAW
The following applies: Compound concentration 10.0 uM.

Each structure is given as a SMILES string. Calls of active or inactive are those of the source. No cut-off for these calls is given here.

Sequence of Maternal embryonic leucine zipper kinase (Homo sapiens) (Q14680 whole entry, looked up): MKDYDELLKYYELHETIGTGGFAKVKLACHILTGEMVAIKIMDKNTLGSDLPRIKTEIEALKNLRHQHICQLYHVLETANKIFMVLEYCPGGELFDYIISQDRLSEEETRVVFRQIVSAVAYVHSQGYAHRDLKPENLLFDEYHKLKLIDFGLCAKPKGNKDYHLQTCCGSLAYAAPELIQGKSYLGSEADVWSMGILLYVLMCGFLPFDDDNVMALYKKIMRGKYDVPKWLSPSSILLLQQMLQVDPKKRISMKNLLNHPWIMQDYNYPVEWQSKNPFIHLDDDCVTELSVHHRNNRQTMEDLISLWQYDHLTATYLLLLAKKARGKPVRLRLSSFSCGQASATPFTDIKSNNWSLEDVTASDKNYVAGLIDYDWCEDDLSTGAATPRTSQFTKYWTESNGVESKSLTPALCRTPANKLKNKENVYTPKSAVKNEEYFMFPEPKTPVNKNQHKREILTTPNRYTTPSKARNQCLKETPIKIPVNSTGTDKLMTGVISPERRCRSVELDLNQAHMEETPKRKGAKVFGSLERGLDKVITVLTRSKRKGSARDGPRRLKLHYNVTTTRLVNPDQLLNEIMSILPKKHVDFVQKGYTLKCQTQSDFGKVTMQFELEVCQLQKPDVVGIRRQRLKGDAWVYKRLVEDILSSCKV
Sequence of 5-hydroxytryptamine receptor 1D (Homo sapiens) (P28221 whole entry): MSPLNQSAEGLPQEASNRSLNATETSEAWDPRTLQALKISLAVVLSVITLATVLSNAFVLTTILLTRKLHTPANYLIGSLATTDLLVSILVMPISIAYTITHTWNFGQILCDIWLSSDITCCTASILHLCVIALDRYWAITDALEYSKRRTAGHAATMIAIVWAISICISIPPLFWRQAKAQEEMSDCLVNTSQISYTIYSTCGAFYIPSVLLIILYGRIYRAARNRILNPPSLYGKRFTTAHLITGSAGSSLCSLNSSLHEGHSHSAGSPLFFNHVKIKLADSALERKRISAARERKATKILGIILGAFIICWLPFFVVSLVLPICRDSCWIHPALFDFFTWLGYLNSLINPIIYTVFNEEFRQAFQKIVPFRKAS
Sequence of Delta-type opioid receptor (Homo sapiens) (P41143 whole entry): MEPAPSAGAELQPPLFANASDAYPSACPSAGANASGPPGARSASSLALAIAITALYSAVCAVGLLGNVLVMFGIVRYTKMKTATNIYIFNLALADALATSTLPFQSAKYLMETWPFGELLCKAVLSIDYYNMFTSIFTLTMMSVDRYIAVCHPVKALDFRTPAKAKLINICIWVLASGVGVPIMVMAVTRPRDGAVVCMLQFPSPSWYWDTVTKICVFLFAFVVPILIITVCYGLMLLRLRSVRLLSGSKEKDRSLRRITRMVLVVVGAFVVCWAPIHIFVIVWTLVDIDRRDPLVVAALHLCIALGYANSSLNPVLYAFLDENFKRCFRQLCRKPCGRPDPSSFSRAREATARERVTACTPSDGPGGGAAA
Sequence of Death-associated protein kinase 1 (Homo sapiens) (P53355 whole entry, looked up): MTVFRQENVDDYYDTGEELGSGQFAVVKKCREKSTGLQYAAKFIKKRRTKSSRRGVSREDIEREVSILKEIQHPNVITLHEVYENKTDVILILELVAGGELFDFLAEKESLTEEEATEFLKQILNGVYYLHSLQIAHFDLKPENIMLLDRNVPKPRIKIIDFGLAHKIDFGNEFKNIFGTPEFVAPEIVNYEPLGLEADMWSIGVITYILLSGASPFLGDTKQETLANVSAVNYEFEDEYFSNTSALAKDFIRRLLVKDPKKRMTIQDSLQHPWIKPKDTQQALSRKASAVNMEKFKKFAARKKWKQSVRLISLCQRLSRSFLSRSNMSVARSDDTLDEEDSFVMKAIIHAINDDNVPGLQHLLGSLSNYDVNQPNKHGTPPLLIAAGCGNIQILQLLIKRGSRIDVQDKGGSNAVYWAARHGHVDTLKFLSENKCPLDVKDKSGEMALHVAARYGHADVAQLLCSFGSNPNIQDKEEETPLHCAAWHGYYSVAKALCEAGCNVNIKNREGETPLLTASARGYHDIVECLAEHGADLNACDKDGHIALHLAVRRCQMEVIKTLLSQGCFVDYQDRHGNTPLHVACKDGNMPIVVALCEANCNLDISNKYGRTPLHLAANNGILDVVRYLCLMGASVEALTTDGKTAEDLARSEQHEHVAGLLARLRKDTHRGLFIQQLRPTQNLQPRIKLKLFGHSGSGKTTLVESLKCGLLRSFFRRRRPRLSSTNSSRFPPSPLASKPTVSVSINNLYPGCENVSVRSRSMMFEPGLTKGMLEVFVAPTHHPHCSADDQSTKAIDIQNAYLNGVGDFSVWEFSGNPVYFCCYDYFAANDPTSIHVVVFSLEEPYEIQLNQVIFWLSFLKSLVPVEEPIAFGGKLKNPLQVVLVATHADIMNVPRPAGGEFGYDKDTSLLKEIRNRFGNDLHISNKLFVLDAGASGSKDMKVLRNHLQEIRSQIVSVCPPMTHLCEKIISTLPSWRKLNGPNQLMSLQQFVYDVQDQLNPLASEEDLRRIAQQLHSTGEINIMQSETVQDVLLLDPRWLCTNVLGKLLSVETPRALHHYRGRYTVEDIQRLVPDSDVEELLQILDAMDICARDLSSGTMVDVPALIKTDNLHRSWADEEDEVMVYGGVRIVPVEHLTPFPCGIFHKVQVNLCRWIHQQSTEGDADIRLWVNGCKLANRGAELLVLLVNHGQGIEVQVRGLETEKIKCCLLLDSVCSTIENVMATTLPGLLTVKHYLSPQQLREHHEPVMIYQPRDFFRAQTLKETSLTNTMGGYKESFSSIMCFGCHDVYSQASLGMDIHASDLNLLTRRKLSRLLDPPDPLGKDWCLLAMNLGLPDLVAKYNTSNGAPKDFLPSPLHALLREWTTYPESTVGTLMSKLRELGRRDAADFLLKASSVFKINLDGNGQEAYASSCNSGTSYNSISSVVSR
Sequence of Ribosomal protein S6 kinase alpha-1 (Homo sapiens) (Q15418 whole entry): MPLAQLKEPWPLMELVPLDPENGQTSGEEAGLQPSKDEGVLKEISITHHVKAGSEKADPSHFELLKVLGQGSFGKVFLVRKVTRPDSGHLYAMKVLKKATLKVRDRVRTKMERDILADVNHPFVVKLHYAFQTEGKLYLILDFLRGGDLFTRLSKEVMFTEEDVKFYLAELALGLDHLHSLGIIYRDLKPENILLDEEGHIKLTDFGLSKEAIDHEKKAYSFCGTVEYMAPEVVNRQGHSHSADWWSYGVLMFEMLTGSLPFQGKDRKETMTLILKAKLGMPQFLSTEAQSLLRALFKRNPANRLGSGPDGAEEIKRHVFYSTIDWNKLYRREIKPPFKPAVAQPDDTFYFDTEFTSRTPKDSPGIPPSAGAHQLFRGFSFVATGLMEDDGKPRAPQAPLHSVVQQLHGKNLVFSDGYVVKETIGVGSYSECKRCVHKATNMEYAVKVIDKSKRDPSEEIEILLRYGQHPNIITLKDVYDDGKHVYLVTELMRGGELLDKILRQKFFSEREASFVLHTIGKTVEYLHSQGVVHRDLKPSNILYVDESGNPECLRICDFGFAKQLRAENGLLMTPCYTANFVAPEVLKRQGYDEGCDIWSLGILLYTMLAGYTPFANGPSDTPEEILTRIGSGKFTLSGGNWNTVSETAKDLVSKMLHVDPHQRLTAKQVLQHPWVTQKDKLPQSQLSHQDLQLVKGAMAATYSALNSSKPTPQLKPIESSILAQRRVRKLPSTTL
Sequence of MAP kinase-activated protein kinase 2 (Homo sapiens) (P49137 whole entry, looked up): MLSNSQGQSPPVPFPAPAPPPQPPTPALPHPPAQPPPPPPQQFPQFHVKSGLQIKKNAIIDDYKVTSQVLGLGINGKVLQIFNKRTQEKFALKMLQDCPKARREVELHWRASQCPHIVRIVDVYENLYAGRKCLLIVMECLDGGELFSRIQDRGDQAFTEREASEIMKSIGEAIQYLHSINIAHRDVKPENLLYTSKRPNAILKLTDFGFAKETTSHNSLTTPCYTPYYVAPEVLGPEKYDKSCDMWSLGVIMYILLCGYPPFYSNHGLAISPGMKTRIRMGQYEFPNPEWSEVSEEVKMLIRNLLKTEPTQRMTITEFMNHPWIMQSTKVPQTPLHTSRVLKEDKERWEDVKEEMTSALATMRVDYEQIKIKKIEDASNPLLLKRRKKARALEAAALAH
Sequence of Serine/threonine-protein kinase B-raf (Homo sapiens) (P15056 whole entry, canonical isoform): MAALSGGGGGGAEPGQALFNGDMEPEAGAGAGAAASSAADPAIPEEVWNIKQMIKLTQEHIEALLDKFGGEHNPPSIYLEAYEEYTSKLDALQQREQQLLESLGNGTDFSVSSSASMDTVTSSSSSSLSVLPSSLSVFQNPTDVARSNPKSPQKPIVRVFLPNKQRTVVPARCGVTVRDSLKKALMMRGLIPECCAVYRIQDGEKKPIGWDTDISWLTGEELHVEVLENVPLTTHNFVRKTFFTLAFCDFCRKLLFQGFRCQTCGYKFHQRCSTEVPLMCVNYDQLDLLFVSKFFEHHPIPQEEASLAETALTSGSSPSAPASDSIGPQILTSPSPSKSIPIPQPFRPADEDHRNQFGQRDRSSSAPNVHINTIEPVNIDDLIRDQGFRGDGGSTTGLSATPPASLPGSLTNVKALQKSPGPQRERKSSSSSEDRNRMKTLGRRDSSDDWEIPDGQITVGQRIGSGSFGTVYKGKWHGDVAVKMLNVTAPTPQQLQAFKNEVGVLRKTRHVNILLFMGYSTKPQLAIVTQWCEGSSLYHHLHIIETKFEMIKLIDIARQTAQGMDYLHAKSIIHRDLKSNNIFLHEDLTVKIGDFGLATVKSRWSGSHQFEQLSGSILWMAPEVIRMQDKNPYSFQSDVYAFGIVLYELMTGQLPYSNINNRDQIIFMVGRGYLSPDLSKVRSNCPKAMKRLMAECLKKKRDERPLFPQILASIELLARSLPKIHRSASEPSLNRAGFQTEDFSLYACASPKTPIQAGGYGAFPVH

Consider `CCC[C@H]1CNCc2c1[nH]c(=O)c(C#N)c2N1CCC2(CC1)CC2`, for which, in assay [1], the IC50 is 0.015 µM (active). Besides, the delta Tm Staurosporine positive control was found to be 1.08 in [2]; 3.12 in assay [3]; 9.84 in assay [4]; 11.8 in assay [5]; 3.96 in assay [6]; 14.2 in [7]. The delta Tm Staurosporine positive control in assay [8] turned out to be 4.78; in assay [9], 0.0394. The ΔTm is -0.134 in [2]; -0.118 in assay [3]; 0.2 in assay [4]; -0.306 in assay [5]; -0.289 in assay [6]; -0.201 in [7]. Further, the figures for the ΔTm in assay [8] and in assay [9] were -0.0815 and -0.211, respectively. In addition, the inhibition in assay [10] is 25%; in assay [11], 26.2%; in [12], -9.99%; in assay [13], 4.16%.

On to `CCC[C@@H]1CNCc2c1[nH]c(=O)c(C#N)c2N1CCC2(CC1)CC2`, for which, in assay [1], the IC50 was > 10 µM (not active). For the same molecule, the delta Tm Staurosporine positive control is 1.08 in assay [2]; 3.12 in assay [3]; 9.84 in [4]; 11.8 in [5]; 3.96 in assay [6]; 14.2 in [7]. The results for the delta Tm Staurosporine positive control in assay [8] and in assay [9] were 4.78 and 0.0394, respectively. Besides, the ΔTm in assay [2] was -0.0823; in assay [3], -0.0146; in assay [4] it was -0.225; in assay [5] it was -0.34; in assay [6], -0.281; in [7], 0.193. Moreover, the ΔTm in assay [8] is -0.0442; in assay [9], -0.244. In addition, the inhibition in assay [10] was 35%; in assay [11], 57.9%; in [12], 3.91%; in [13], 16.9%.
